Measured values: patent US20180016259A1, “QUINAZOLINE INHIBITORS OF ACTIVATING MUTANT FORMS OF EPIDERMAL GROWTH FACTOR RECEPTOR” (AstraZeneca AB, priority 2013, published 2018)
Where two headings read alike, the source gives them in different places.

Experiments:
[1] = Brain blood barrier penetration assay (short oral absorption model with in vitro blood and brain binding); assay type: in vivo; details: male Han Wistar rats, oral 2 mg/kg in 1% methylcellulose; for Kp uu: rat
Description: Both Kp,uu brain and Kp,uu CSF should be the main parameters measured and optimized in CNS drug discovery (Di L et al., Journal of Medicinal Chemistry [2013], 56: 2-12). Kp,uu brain, the relationship between concentrations of unbound drug in brain and in blood, predicts drug action on metastatic tumors in brain Leptomeningeal metastasis (LM) results from metastatic spread of cancer to the leptomeninges, giving rise to central nervous system dysfunction. Kp,uu CSF represents the distribution of drug in CSF as compared to that in blood, which drives drug response during leptomeningeal metastasis treatment.
In vitro blood and brain binding assay was carried out on a HT-Dialysis plate (Gales Ferry, Conn.) with semi-permeable membrane. Diluted blood (1:1 with DPBS pH7.4) and brain homogenate (1:3 with DPBS pH7.4) were spiked with 5 μM test compound (in triplicate) and dialyzed against equal volume of 150 μL 100 mM PBS buffer (pH7.4) at 37° C. for 4 hours in a slowly rotated plate. At the end of incubation, a 50 μL aliquot from the receiver side and a […] from the donor chamber were taken. The 5 μL sample was further diluted with 45 μL of blank blood or brain homogenate. Paired samples were matrix-matched with either buffer or blank blood/brain homogenate and mixed for 2 min, and then precipitated with 150 μL cold acetonitrile with 100 ng/mL tolbutamide as internal standard. After centrifuging at 4000 rpm for 20 min, supernatant was diluted with 0.1% formic acid aqueous solution and analyzed for LC/MS/MS (API 4000, Applied Biosystems, Foster City). […]. D is dilution factor.
A Short oral absorption (SOA) model is an in-vivo screening model to identify brain penetration of a compound. Six male Han Wistar rats purchased from Beijing Vital River were orally dosed with the compound at 2 mg/kg in 1% methylcellulose. At 0.25, 0.5, 1, 2, 4 and 7 hour post-dose, cerebral spinal fluid (CSF) was collected from cisterna magna, and blood samples (>60 μL/time point/each site) were collected via cardiac puncture, into separate EDTA […] tubes, and then immediately diluted with 3-fold volume of water. Brain tissue was harvested and homogenized in 3× volume of 100 mM phosphate buffered saline (pH7.4). All samples were stored at ˜−70° C. prior to LC/MS/MS analysis.
Standards were prepared by spiking blank blood, brain homogenate and artificial CSF covering 0.2 to 500 ng/mL. Homogenized brain tissue along with blood samples were precipitated by adding 3-fold volume of cold acetonitrile containing internal standard (40 ng/mL Dexamethasone and 40 ng/mL Diclofenac), and 10 μL of CSF samples were precipitated with 100 μL of cold acetonitrile containing internal standard. After 2 min vortex and 5 min centrifugation at 14,000 rpm, supernatant was analyzed by LC/MS/MS (API 4000, Applied Biosystems, Foster City). Two sets of standard curves were run at the beginning and end of each batch from blood sample analysis. For brain and CSF samples, one standard curve was analyzed along with test samples.
Total brain levels, expressed as brain/blood ratio (Kp,brain) were measured by AUCbrain/AUCblood in rodents after oral administration. Free fraction of test compound in biological matrix was determined by in vitro blood and brain binding assay. Kp,uu brain and Kp,uu CSF were calculated by the following equation: Kp,uu brain=AUCbrain/AUCblood×(fu,brain/fu.blood) and Kp,uu CSF=AUCCSF/(AUCblood×fu.blood).

[2] = literature reports; cited from earlier work

Molecule `COc1cc2ncnc(Nc3cccc(Cl)c3F)c2cc1OC(=O)N1CCN(C)C[C@H]1C` [Example 1, 4-[(3-Chloro-2-fluorophenyl)amino]-7-methoxyquinazolin-6-yl (2R)-2,4-dimethylpiperazine-1-carboxylate] has a Kp uu ([1]; male, Han Wistar, in vivo, po, 2 mg/kg, AUCCSF/(AUCblood x fu,blood), read-out: Kp, uu CSF) of 1 to 1.3 and a Kp uu ([1]; male, Han Wistar, in vivo, po, 2 mg/kg, AUCbrain/AUCblood x (fu,brain/fu,blood), read-out: Kp, uu brain) of 0.8 to 1.3.
Work on `COc1cc2ncnc(Nc3cccc(Cl)c3F)c2cc1OC(=O)N1CCN(C)C[C@@H]1C` [Example 3, 4-[(3-Chloro-2-fluorophenyl)amino]-7-methoxyquinazolin-6-yl (2S)-2,4-dimethylpiperazine-1-carboxylate] yielded a Kp uu ([1]; CSF / blood, AUCCSF/(AUCblood x fu,blood), read-out: Kp, uu CSF) of 2.6.
For `CN(C)C/C=C/C(=O)Nc1cc2c(Nc3ccc(F)c(Cl)c3)ncnc2cc1O[C@H]1CCOC1` [afatinib], the “adverse effects, such as skin rash and diarrhoea, share of NSCLC patients treated” value [2] is listed as over 90%.
For `COc1cc2ncnc(Nc3ccc(F)c(Cl)c3)c2cc1NC(=O)/C=C/CN1CCCCC1` [dacomitinib], the “adverse effects, such as skin rash and diarrhoea, share of NSCLC patients treated” value [2] is given as over 90%.
With `CNC(=O)CN1CCC(Oc2cc3c(Nc4cccc(Cl)c4F)ncnc3cc2OC)CC1` [sapitinib] the “Kp, uu CSF” value ([1]; AUCCSF/(AUCblood x fu,blood)) was “Below quantification limit” and the Kp uu ([1]; AUCbrain/AUCblood x (fu,brain/fu,blood), read-out: Kp, uu brain) was 0.13.
